Data set [1] has as its system female Spague-Dawley rat. The data set is described as follows: Number of voiding episodes in rat natural voiding behavior test. In kind it is in vivo. The settings on record: 1 hour after administration. As to the method: This method was carried out according to the literature [Jpn. J. Pharmacol., 87, 27 (2001)]. Each female Spague-Dawley rat was placed in a urine collection cage, and an electronic balance was placed under the cage. Excreted urine was allowed to fall into a urine collection tray placed on the electronic balance, and its change in weight every 10 seconds was scaled with time through a personal computer. Not less than 0.1 g of the change in weight was regarded as indicative of urination, and the weight of 1 g was regarded as corresponding to 1 mL of urine. Drug administration was carried out subcutaneously, and the number of voiding episodes was measured for 1 hour before and after the drug administration, to observe its change (number of cases: 11 to 18/group).
Significant difference test was carried out by student's-test or williams test, wherein a significance level of less than 5% was accepted as significant (* in the table).

The test system of data set [2] is female Spague-Dawley rat. Description: Effect on cardiovascular system in anesthetized rats. In kind it is in vivo. The settings on record: cumulative, 30 minutes, relative to before administration. As to the method:
(§1) This method was carried out in accordance with the literature [Experimental Methods in Pharmacology, 5th Revised Edition, p. 168, KYODO ISHO SHUPPAN CO., LTD.]
Each female Spague-Dawley rat was anesthetized with urethane, and a polyethylene cannula was inserted into the left common carotid artery and fixed therein, to measure the mean blood pressure and the heart rate. […] Data were represented as amounts of the changes (blood pressure: mmHg, heart rate: %) relative to values before the administration (number of cases: 3 to 8/group).

The subject of data set [3] is female Spague-Dawley rat. The data set is described as follows: Effect on cardiovascular system in conscious rats. In kind it is in vivo. As to conditions: 30 minutes, relative to before administration. As to the method:
as §1
Each female Spague-Dawley rat was anesthetized with ether, and a polyethylene cannula was inserted into the left common carotid artery and fixed therein, followed by subcutaneously indwelling a cannula for drug administration. After recovery from anesthesia, the mean blood pressure and the heart rate were measured under free moving conditions.

The subject of data set [4] is female Spague-Dawley rat. Description: Number of voiding episodes in rat natural voiding behavior test. In kind it is in vivo. The settings on record: 3 hours after the administration.
Data set [5] concerns isolated bladder smooth muscle. Description: Relaxing activity test against isolated bladder smooth muscle in rat. As to conditions: resting tension of isolated rat bladder; relaxation by 10 μM forskolin = 100%. How it is done:
This method was carried out in accordance with the literature [J. Pharmacol. Exp. Ther., 293, 939 (2000)]. Each bladder was isolated from a normal Spague-Dawley rat, and a bladder section of the size of about 2×10 mm was prepared in the nutrient solution (Krebs solution [NaCl 118 mM; KCl 4.7 mM; NaH2PO4 1.1 mM; glucose 10 mM; NaHCO3 25 mM; MgCl2.7H2O 1 mM; CaCl2.2H2O 2.5 mM]) sufficiently oxygenated with 95% O2+5% CO2. The sample was suspended in a Magnus tube filled with the nutrient solution (Krebs solution) aerated with 95% O2+5% CO2 at 37° C., and stabilized under a load of 0.5 g for 60 minutes or longer. The resting tension of the bladder sample was recorded in a pen recorder through a tension transducer. The test compound was cumulatively applied about every 10 minutes. […] The test compound was dissolved in distilled water or aqueous 10% dimethylsulfoxide solution.

The target in data set [6] is T1, human adrenergic β3 receptor (Homo sapiens, UniProt P13945).
T1 construct: evaluated using SK-N-MC cells in the presence of a selective adrenergic β1 receptor antagonist; endogenous in cells; host or cells: SK-N-MC cells
Description: Agonistic activity (cAMP production) against human adrenergic β3 receptor in SK-N-MC cells. It is filed as cell-based. As to the method:
(§2) This method was carried out according to the literature [J. Pharmacol. Exp. Ther., 271, 1253 (1994)] or [Naunyn-Schmiedeberg's Arch. Pharmacol., 369, 151 (2004)], using the amount of the production of cAMP as an index. The agonistic activity against human adrenergic β3 receptor was evaluated using SK-N-MC cells in the presence of a selective adrenergic β1 receptor antagonist (CGP-20712A, 1 μM). Evaluation of the agonistic activities against human adrenergic β2 and β1 receptors was carried out using CHO-K1 cells forcibly-expressed each receptor. Their cells were cultured in a culture flask. In assay day, they were detached and collected with EDTA, followed by dispensing in a 384-well plate so as to attain 10,000 cells/well. The test compound of each concentration was added to each well and allowed to react in a CO2 incubator at 37° C. for 30 minutes, followed by quantification of the produced cAMP using cAMP detection kit (Perkinelmer). The logarithm of the 50% reaction concentration of each test compound was calculated taking the reaction by 100 or 300 nM Isoproterenol as 100%. The test drug was added up to 10 μM, and in cases where reaction of not less than 50% was not observed at this concentration, the result was represented as n.d. (not detected).

Data set [7] addresses T2, human adrenergic β2 receptor (Homo sapiens, UniProt P07550).
T2 construct: expressed in transfected cells; host or cells: CHO-K1 cells
Description: Agonistic activity (cAMP production) against human adrenergic β2 receptor in CHO-K1 cells. In kind it is cell-based. How it is done: as §2
(cAMP levels reflect the balance of adenylyl cyclase and phosphodiesterase activity.)

For data set [8], the system named is isolated bladder smooth muscle. The data set is described as follows: Relaxing activity against isolated bladder smooth muscle in human. The settings on record: relaxation by 10 μM forskolin = 100%. As to the method:
This method was carried out in accordance with the literature [J. Urology, 165, 240 (2001)].
A normal part (non-cancerous part) of the bladder removed from a human male (32-72 years old) by bladder cancer surgery was used. A bladder section sizing about 3×10 mm was prepared in the nutrient solution (Krebs solution [NaCl 118 mM; KCl 4.7 mM; NaH2PO4 1.2 mM; glucose 10 mM; NaHCO3 25 mM; MgCl2.7H2O 1.2 mM; CaCl2.2H2O 2.5 mM]) sufficiently oxygenated with 95% O2+5% CO2. The sample was suspended in a Magnus tube filled with the nutrient solution (Krebs solution) aerated with 95% O2+5% CO2 at 37° C., and stabilized under a load of 0.5 g for 60 minutes or longer. The resting tension of the bladder sample was recorded in a pen recorder through a tension transducer. The test compound was cumulatively applied about every 10 minutes. The test compound was dissolved in distilled water or aqueous 10% DMSO solution (number of cases: 3 to 4/group).

The mark [9] stands for this setting: SK-N-MC cells, cAMP, with CGP-20712A 1 μM, 100 or 300 nM Isoproterenol = 100%, tested up to 10 μM, read-out: β3 (logarithm of the 50% reaction concentration) (converted).

Each structure is given as a SMILES string. Where two headings read alike, the source gives them in different places. Marks after values point to notes of the source that are not given here.

T1 sequence (P13945 whole entry): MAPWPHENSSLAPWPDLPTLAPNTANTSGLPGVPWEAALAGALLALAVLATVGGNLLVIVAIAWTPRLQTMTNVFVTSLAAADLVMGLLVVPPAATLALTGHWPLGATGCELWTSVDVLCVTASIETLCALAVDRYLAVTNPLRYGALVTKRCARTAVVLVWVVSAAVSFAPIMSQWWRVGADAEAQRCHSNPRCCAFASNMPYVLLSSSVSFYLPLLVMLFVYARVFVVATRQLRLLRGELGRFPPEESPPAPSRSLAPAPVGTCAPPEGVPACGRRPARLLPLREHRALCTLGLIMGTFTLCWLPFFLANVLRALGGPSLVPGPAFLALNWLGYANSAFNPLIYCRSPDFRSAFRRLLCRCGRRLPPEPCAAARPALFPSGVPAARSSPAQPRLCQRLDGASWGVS
T2 sequence (P07550 whole entry): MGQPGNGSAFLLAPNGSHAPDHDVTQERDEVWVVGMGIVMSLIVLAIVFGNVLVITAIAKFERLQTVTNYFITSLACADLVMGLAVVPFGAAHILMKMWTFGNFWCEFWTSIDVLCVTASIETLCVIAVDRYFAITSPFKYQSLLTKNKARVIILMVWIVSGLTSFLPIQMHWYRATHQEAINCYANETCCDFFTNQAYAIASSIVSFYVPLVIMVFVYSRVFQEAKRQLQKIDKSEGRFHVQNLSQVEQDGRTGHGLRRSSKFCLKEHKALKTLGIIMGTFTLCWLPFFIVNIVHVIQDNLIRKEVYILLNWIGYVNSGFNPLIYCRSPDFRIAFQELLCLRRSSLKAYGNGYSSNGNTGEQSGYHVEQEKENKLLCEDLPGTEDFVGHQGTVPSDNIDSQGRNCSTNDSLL

For the molecule `Nc1nc(CC(=O)Nc2ccc(CCNC[C@H](O)c3ccccc3)cc2)cs1` [Compound 11, reference compound], the “Number of Voiding Episodes” value is given as 0.67 ± 0.19 with female Spague-Dawley rat [1] (3 mg/kg subcutaneously) and “did not show a significant effect” in the data set with female Spague-Dawley rat [1] (3 mg/kg subcutaneously, listed as compound 11). The “Change in Blood Pressure” value with female Spague-Dawley rat [2] (3 mg/kg subcutaneously) is listed as −17.1 ± 3.5 mmHg; in the data set with female Spague-Dawley rat [3] (3 mg/kg subcutaneously) it was −22.5 ± 5.6 mmHg. The “Change in Heart Rate” value in the data set on female Spague-Dawley rat [2] (3 mg/kg subcutaneously, 3 mg/kg) amounted to 133.5 ± 8.2 %. In addition, in the data set with female Spague-Dawley rat [4], the “effect of decreasing the frequency of voiding episodes” value was “significant effect”.

`COc1cc(CN[C@@H](C)[C@H](O)c2ccc(O)c(NS(C)(=O)=O)c2)cc(OC)c1` [Example 1, N-(5-((1R,2S)-2-(3,5-Dimethoxybenzylamino)-1-hydroxypropyl)-2-hydroxyphenyl)methane-sulfonamide]: the EC50 is 229 nM in data set [5]; 39.8 nM in data set [6] (setting [9]); 2340 nM in data set [7] (CHO-K1 cells, cAMP, 100 or 300 nM Isoproterenol = 100%, tested up to 10 μM, n.d. = not detected at 10 μM, read-out: β2 (logarithm of the 50% reaction concentration) (converted)); 562 nM in data set [8]. In addition, the “Number of Voiding Episodes” value in the data set with female Spague-Dawley rat [1] (0.1 mg/kg subcutaneously) was 1.06 ± 0.17; in the data set on female Spague-Dawley rat [1] (0.3 mg/kg subcutaneously) it was 0.83 ± 0.12*; with female Spague-Dawley rat [1] (1 mg/kg subcutaneously) it was 0.94 ± 0.17*. The “Change in Blood Pressure” value is recorded as −25.2 ± 4.7 mmHg in the data set with female Spague-Dawley rat [2] (0.3 mg/kg subcutaneously), −25.4 ± 2.3 mmHg with female Spague-Dawley rat [2] (1 mg/kg subcutaneously), −25.0 ± 3.6 mmHg with female Spague-Dawley rat [2] (3 mg/kg subcutaneously) and −6.5 ± 5.5 mmHg with female Spague-Dawley rat [3] (0.3 mg/kg subcutaneously). Besides, the “Change in Heart Rate” value is recorded as 121.7 ± 4.2% with female Spague-Dawley rat [2] (0.3 mg/kg subcutaneously), 126.4 ± 5.1% with female Spague-Dawley rat [2] (1 mg/kg subcutaneously), 135.2 ± 8.4% in the data set with female Spague-Dawley rat [2] (3 mg/kg subcutaneously) and 107.7 ± 3.5% in the data set on female Spague-Dawley rat [3] (0.3 mg/kg subcutaneously).

For `C[C@H](NCc1cc(C(F)(F)F)cc(C(F)(F)F)c1)[C@H](O)c1ccc(O)c(NS(C)(=O)=O)c1` [Example 2, N-(5-((1R,2S)-2-(3,5-Bis(trifluoromethyl)benzylamino)-1-hydroxypropyl)-2-hydroxyphenyl)methanesulfonamide], the EC50 is 36.3 nM in data set [5] and 31.6 nM in data set [6] (setting [9]). For the same molecule, in the data set with female Spague-Dawley rat [1] (3 mg/kg subcutaneously), the “Number of Voiding Episodes” value was 0.45 ± 0.21*.

`C[C@H](NCc1cc(Cl)cc(Cl)c1)[C@H](O)c1ccc(O)c(NS(C)(=O)=O)c1` [Example 3, N-(5-((1R,2S)-2-(3,5-Dichlorobenzylamino)-1-hydroxypropyl)-2-hydroxyphenyl)methane-sulfonamide]: the EC50 in data set [5] is 89.1 nM; in data set [6] it was 21.9 nM; in data set [7], 1070 nM. For the same molecule, the “Number of Voiding Episodes” value with female Spague-Dawley rat [1] (3 mg/kg subcutaneously) was 0.50 ± 0.15*.

For `COc1cc(CN[C@@H](C)[C@H](O)c2ccc(O)c(NS(C)(=O)=O)c2)cc(OC)c1OC` [Example 4, N-(2-Hydroxy-5-((1R,2S)-1-hydroxy-2-(3,4,5-trimethoxybenzylamino)propyl)phenyl)methane-sulfonamide], the results for the EC50 in data set [5], in data set [6] (setting [9]) and in data set [8] were 74.1 nM, 33.1 nM and 708 nM, respectively. Besides, the “Number of Voiding Episodes” value in the data set on female Spague-Dawley rat [1] (3 mg/kg subcutaneously) is on record as 0.33 ± 0.19*.

On to `Cc1cc(C)cc(CN[C@@H](C)[C@H](O)c2ccc(O)c(NS(C)(=O)=O)c2)c1` [Example 5, N-(5-((1R,2S)-2-(3,5-Dimethylbenzylamino)-1-hydroxypropyl)-2-hydroxyphenyl)methane-sulfonamide], for which the EC50 in data set [5] is 151 nM; in data set [6] it was 72.4 nM; in data set [8], 575 nM. Further, the “Number of Voiding Episodes” value with female Spague-Dawley rat [1] (3 mg/kg subcutaneously) is 0.50 ± 0.15*.

Source of the values: patent US8148427B2, “Benzylamine derivative or pharmaceutically acceptable acid addition salt thereof, and use thereof for medical purposes” (Toray Industries, Inc., priority 2007, dated 2012).
